What all share (experiment): HDAC8 mutant biochemical assay
Test [1] concerns the target T1, HDAC8 Cys102Ser/Cys153Ser (Homo sapiens, UniProt Q9BY41, C102S/C153S).
T1 construct: made in house
T1 sequence (Q9BY41 1-377 C102S/C153S): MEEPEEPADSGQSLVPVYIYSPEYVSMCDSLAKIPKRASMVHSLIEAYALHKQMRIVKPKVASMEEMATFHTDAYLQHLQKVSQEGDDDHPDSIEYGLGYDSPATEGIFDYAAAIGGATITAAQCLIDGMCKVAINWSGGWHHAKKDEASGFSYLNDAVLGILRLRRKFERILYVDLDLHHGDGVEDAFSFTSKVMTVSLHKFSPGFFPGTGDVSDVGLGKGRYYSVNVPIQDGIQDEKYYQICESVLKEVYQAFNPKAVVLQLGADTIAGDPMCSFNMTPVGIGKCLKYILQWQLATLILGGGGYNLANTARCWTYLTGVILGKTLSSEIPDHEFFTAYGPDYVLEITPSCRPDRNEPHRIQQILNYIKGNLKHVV
As to conditions: read-out: IC50 [μM] @ 100 nM HDAC8: A Cys102Ser/Cys153Ser, 1 h preincubation. On the procedure: (§1) HDAC8 mutant variants were generated, produced, and further purified as described previously.[32] Cysteines 28 and 314 were exchanged with serine using the following primer pairs: HD8_C28S_for, […]; HD8_C28S_rev, […]; HD8_C314S_for, […]; HD8_C314S_rev, […].
(§2) The enzyme activity assay was performed in assay buffer [25 mM Tris-HCl (pH 8.0), 50 mM NaCl, and 0.001% (v/v) Pluronic F-68] in black half-area 96-well microplates (Greiner Bio-One). For the initial screening, 10 nM HDAC8 was preincubated with the indicated compounds at 250 μM for 2 h at 30 °C. […] The reaction was initiated by the addition of 20 μM Boc-Lys(TFA)-AMC (Bachem). After substrate conversion at 30 °C for 15 min for HDAC8 and 1 h for HDAC8 mutants and HDAC4, the reaction was stopped by adding 1.67 μM suberoylanilide trifluoromethylketone (SATFMK). The deacetylated substrate was cleaved with 0.42 mg/mL trypsin to release fluorescent 7-amino-4-methylcoumarin (AMC), which was detected with a microplate reader (PHERAstar FS […]) with fluorescence excitation at 360 nm and emission at 460 nm. IC50 values were calculated by generating dose–response curves in GraphPad Prism 6 and fitting those to a four-parameter logistic model.

In test [2] the target is T2, HDAC8 Cys102Ser/Cys153Ser/Cys131Ser (Homo sapiens, UniProt Q9BY41, C102S/C131S/C153S).
T2 construct: made in house
T2 sequence (Q9BY41 1-377 C102S/C131S/C153S): T1 sequence (Q9BY41 1-377 C102S/C153S) with C131S
The conditions noted are these: read-out: IC50 [μM] @ 100 nM HDAC8: D Cys102Ser/Cys153Ser/Cys131Ser, 1 h preincubation. On the procedure:
as §1, §2

In test [3] the target is T3, HDAC8 Cys102Ser/Cys153Ser/Cys287Ser (Homo sapiens, UniProt Q9BY41, C102S/C153S/C287S).
T3 construct: made in house
T3 sequence (Q9BY41 1-377 C102S/C153S/C287S): T1 sequence (Q9BY41 1-377 C102S/C153S) with C287S
The conditions noted are these: read-out: IC50 [μM] @ 100 nM HDAC8: G Cys102Ser/Cys153Ser/Cys287Ser, 1 h preincubation. How it is done: as §1, §2

For test [4], the target named is T4, HDAC8 Cys102Ser/Cys153Ser/Cys314Ser (Homo sapiens, UniProt Q9BY41, C102S/C153S/C314S).
T4 construct: made in house
T4 sequence (Q9BY41 1-377 C102S/C153S/C314S): T1 sequence (Q9BY41 1-377 C102S/C153S) with C314S
As to conditions: read-out: IC50 [μM] @ 100 nM HDAC8: H Cys102Ser/Cys153Ser/Cys314Ser, 1 h preincubation. On the procedure:
as §1, §2

Residue numbers refer to the chain shown, from its start.

Consider `C[n+]1ccccc1I` [A3+], for which the IC50 in test [1] is 59 ± 4 µM; in test [2] it was 42 ± 4 µM; in test [3], greater than 130 µM; in test [4], 92 ± 10 µM.

For `C[n+]1cncc(Br)c1` [F2+], the IC50 in test [1] was 29 ± 1 µM; in test [2] it was 25 ± 2 µM; in test [3] it was 95 ± 8 µM; in test [4], 74 ± 11 µM.

As to `C#Cc1cc[n+](C)cc1` [C6+], the IC50 turned out to be 14 ± 1 µM in test [1], 3.3 ± 0.3 µM in test [2], 34 ± 2 µM in test [3] and 100 ± 14 µM in test [4].

As for `C[n+]1cccnc1Cl` [D1+], the IC50 in test [1] was 60 ± 9 µM; in test [2], 49 ± 6 µM; in test [3], greater than 130 µM; in test [4] it was greater than 130 µM.

For `C[n+]1ccc(I)cc1` [C3+], the IC50 in test [1] was 68 ± 5 µM; in test [2], 36 ± 8 µM; in test [3], greater than 130 µM; in test [4], 14 µM.

For the compound `C[n+]1cccnc1Br` [D2+], the IC50 in test [1] is 23 ± 3 µM; in test [2], 18 ± 4 µM; in test [3], greater than 130 µM; in test [4], greater than 130 µM.

Consider `C[n+]1cccnc1I` [D3+], for which the IC50 in test [1] turned out to be 14 ± 1 µM; in test [2], 8 ± 1 µM; in test [3], 51 ± 7 µM; in test [4] it was 20 ± 1 µM.

Regarding `C#Cc1c[n+](C)ccn1` [G6+], the IC50 in test [1] was 97 ± 34 µM; in test [2], 55 ± 12 µM; in test [3], 73 ± 6 µM; in test [4], greater than 130 µM.

Consider `C[n+]1cncc(I)c1` [F3+], for which the IC50 in test [1] is 16 ± 3 µM; in test [2] it was 15 µM; in test [3], greater than 130 µM; in test [4], 19 ± 2 µM.

`C#Cc1nccc[n+]1C` [D6+]: the IC50 in test [1] was greater than 130 µM; in test [2] it was 93 ± 13 µM; in test [3] it was greater than 130 µM.

Source of the values: paper PMC10788917 (Journal of Medicinal Chemistry, 2023).
